# Results from ChEMBL document CHEMBL1146958, “The SAR of 4-substituted (6,6-bicyclic) piperidine cathepsin S inhibitors” (Bioorg Med Chem Lett, 2006).
# pIC50: −log10 of the molar value.
# Target: T1, Alpha-1A adrenergic receptor (Homo sapiens) (UniProt P35348)
# T1 sequence (whole entry): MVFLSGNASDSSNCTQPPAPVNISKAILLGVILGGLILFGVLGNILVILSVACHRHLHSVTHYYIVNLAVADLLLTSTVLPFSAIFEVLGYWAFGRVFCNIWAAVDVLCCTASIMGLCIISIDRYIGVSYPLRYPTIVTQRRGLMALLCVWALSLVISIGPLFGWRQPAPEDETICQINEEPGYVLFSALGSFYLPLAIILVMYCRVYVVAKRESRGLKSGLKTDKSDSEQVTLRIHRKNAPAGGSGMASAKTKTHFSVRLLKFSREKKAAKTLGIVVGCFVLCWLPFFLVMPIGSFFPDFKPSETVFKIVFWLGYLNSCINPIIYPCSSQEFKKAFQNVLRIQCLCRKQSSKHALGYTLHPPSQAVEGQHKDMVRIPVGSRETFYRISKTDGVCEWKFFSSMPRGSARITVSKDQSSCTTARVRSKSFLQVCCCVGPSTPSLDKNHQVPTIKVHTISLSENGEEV
# Assay: Inhibition of alpha 1A adrenergic receptor at 1 uM
row,SMILES,inhibition [%]
1,CS(=O)(=O)N1CCc2c(c(-c3ccc(C(F)(F)F)cc3)nn2CCCN2CCC(N3C(=O)COc4ccccc43)CC2)C1,72
2,CS(=O)(=O)N1CCc2c(c(-c3ccc(C(F)(F)F)cc3)nn2CC(O)CN2CCC(N3C(=O)CCc4cc(Cl)ccc43)CC2)C1 (stereo unspecified),< 10
3,CS(=O)(=O)N1CCc2c(c(-c3ccc(C(F)(F)F)cc3)nn2CC(O)CN2CCC(N3C(=O)COc4ccccc43)CC2)C1 (stereo unspecified),60
4,CS(=O)(=O)N1CCc2c(c(-c3ccc(C(F)(F)F)cc3)nn2CC(O)CN2CCC(N3C(=O)NCc4cc(Cl)ccc43)CC2)C1 (stereo unspecified),40

# Target: Cathepsin S (Homo sapiens, UniProt P25774)
# Sequence (P25774 whole entry): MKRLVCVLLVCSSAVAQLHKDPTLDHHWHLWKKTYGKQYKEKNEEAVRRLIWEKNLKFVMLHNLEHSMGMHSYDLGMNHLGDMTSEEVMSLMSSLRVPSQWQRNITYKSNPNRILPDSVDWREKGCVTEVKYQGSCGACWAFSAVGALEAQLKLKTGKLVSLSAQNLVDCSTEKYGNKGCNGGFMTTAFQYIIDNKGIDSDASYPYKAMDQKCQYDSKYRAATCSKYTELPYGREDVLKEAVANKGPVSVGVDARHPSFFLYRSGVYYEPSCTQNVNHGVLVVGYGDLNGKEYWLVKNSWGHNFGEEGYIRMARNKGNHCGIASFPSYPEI
# Description: Inhibition of cathepsin S
row,pIC50,SMILES
1,7.12,CS(=O)(=O)N1CCc2c(c(-c3ccc(Br)cc3)nn2CC(O)CN2CCC(N3c4ccc(Cl)cc4CNS3(=O)=O)CC2)C1 (stereo unspecified)
2,5.77,CS(=O)(=O)N1CCc2c(c(-c3ccc(C(F)(F)F)cc3)nn2CC(O)CN2CCN(c3ccnc4ccccc34)CC2)C1 (stereo unspecified)
3,5.75,CS(=O)(=O)N1CCc2c(c(-c3ccc(Br)cc3)nn2CC(O)CN2CCC(N3CCc4ccccc4C3)CC2)C1 (stereo unspecified)
4,6.49,CS(=O)(=O)N1CCc2c(c(-c3ccc(Br)cc3)nn2CC(O)CN2CCC(N3CCCc4ccccc43)CC2)C1 (stereo unspecified)

row,SMILES,pIC50
1,CS(=O)(=O)N1CCc2c(c(-c3ccc(Br)cc3)nn2CCCN2CCC(N3C(=O)COc4ccccc43)CC2)C1,7.22
2,CS(=O)(=O)N1CCc2c(c(-c3ccc(C(F)(F)F)cc3)nn2CC(O)CN2CCC(N3C(=O)OCc4ccccc43)CC2)C1 (stereo unspecified),7.06
3,CS(=O)(=O)N1CCc2c(c(-c3ccc(C(F)(F)F)cc3)nn2CC(O)CN2CCC(N3C(=O)COc4ccccc43)CC2)C1 (stereo unspecified),7.55
